Assays:
[1] = Stability of phenylcreatine compared to creatine in blood serum (RP-HPLC peak areas); type: in vitro ADME, human
Experimental: The study of the stability of phenylcreatine and creatine in aqueous solution and in human blood was carried out as follows. For the preparation of solutions of test substances on an analytical balance the exactly weighed phenylcreatine and creatine were taken. The calculated amount of double-distilled water was added to them to obtain a concentration of 1 mg/ml. A part of the solution was diluted 10 times, and the sample was immediately analyzed. Further, that solution was kept at room temperature and after 3 hours the analysis was repeated. Further according to the method described in Dunnett, Harris & Orme (1991) Reverse phase ion-pairing high performance liquid chromatography of phosphocreatine, creatine and creatinine in equine muscle. Scand. J. Clin. Lab. Invest. 51, 137-141, page 139, aliquot (c), creatinine, creatine and phosphocreatine were removed from the samples used for obtaining of the blood serum for mixing, to obtain more accurate results. 1 ml of water or prepared according to the method above blood serum was added to 200 μl of a solution in water of initial substance with a concentration of 2-3 mg/ml, shaken and a sample of 200 μl volume was immediately taken and initial concentration was analyzed. Then the solution was placed in a vibration thermostat at 37° C. and an aliquot of 200 μl was taken in 0.5, 1 and 3 hours of incubation. 20 μl of a 10% solution of trichloroacetic acid was added to the selected sample and kept for 15 min at a temperature of minus 24° C., centrifuged at 6000 g for 5 min to precipitate the plasma proteins, supernatant was collected and its analysis was conducted. The study of the stability of phenylcreatine compared to creatine in an aqueous solution and blood was carried out using reversed-phase HPLC using a chromatographic system Agilent 1220 Infinity LC System (USA). To assess the stability of the analytes, the peak areas of the compounds were compared at the beginning of the experiment and at selected intervals (Table 2).

untrained subjects = conditions: creatine in combination with carbohydrates, 5 days before and 14 days after training; cited from earlier work
[2] = test system: healthy men, having a sedentary lifestyle; conditions: loading protocol followed by 11-week maintenance; for 4-12 weeks; cited from earlier work
[3] = test system: craniocerebral trauma in rats and mice; conditions: cited from earlier work
[4] = test system: children and adults with craniocerebral trauma (CCT); conditions: six months, 400 mg/kg of body weight, cited from earlier work
[5] = test system: adrenal arrhythmia (extrasystole) in rats; test: Model of adrenal arrhythmia (extrasystole) in rats; type: in vivo
Source text: One of the most important factors of arrhythmogenesis and the appearance of extrasystoles is the activation of the sympathoadrenal system. This circumstance determined the necessity of investigating phenylcreatine, proposed by the author of the present invention, on the model of adrenal arrhythmia (extrasystole) in rats (Kushakovsky M S, Heart arrhythmias: a guide for physicians, St. Petersburg, Hippocrates 1992).
In a control series of experiments, in all animals, 12 seconds after injection of epinephrine hydrochloride at a dose of […], polytopic ventricular extrasystole occurred in all animals. The number of ventricular extrasystoles before transition to tachycardia averaged 32±6. The duration of such arrhythmias was 80±21 seconds. In 50% of cases, it passed into the ventricular tachycardia. The duration of tachycardia was, on average, 86±12 seconds.
With the introduction of phenylcreatine, proposed by the present inventor in an amount of 20 mg per animal, half an hour before adrenaline hydrochloride, the number of ventricular extrasystoles was 12±4. The duration of the arrhythmia was 60±14 seconds.

[6] = test system: supraventricular extrasystoles; test: Holter monitoring of supraventricular extrasystoles in a person taking phenylcreatine; type: in vivo, human; conditions: 2 mg per 1 kg per day for 14 days
Experimental: Additionally, the following study was carried out. Professional […] (15 years of experience in power triathlon). Supraventricular extrasystoles with a frequency of 4 times in 24 hours were observed according to holter monitoring. Extrasystoles were very poorly tolerated, there were complaints of discomfort and a decrease in the quality of life (neurosis-like condition). They took phenylcreatine in an amount of 2 mg per 1 kg per day, for 14 days.

male Wistar rats = test: Nootropic action in a shuttle maze, old rats; type: in vivo; conditions: old rats 25 months
Experimental: The experiments were performed on male Wistar rats born in September 2014 (experiments were conducted in November 2016). The animals were kept in standard plastic cells at an air temperature of 21-23° C. They received a balanced granular food and drinking water without restrictions. The work was carried out in compliance with the principles of the Helsinki Declaration on Humane Treatment of Animals.
Rats were divided into 2 groups. The rats of the first test group received 10 mg of phenylcreatine per animal daily for a month with drinking water. The rats of the second test group received water. As a control in the experiment, rats born in May 2016 (the third group, young rats) were used.
In the experiment, a shuttle maze was used to evaluate neuropsychiatric processes, primarily cognitive processes (Navakatikyan M A, Platonov L L, 1988). At the end of the labyrinth there was a food reinforcement (a piece of cheese with a mass of 200 mg).
The time of the experiment to find the exit from the labyrinth was 5 minutes. During the experiment, the time of passing the labyrinth, the number of rats reaching the end of the labyrinth, the number of vertical racks were recorded.

[7] = Negative effects in all the studies conducted; type: in vivo
Source text: It should also be noted that, with all the studies conducted, the negative effects of phenylcreatine according to the invention were not detected, which indicates its safety.

white mongrel mice = test: Endurance of mice in the treadmill test (running to complete exhaustion); type: in vivo
[8] = 0 h, initial, peak area relative to the beginning of the experiment

In the case of CN(CC(=O)O)C(=N)N [creatine, 2-(methylguanine)-ethane acid], the “Stability in a blood serum” value [1, 8] is reported as 100%, the “Stability in a blood serum” value ([1]; 0.5 h incubation at 37° C.) is reported as 98% and the “Stability in a blood serum” value ([1]; 1 h incubation at 37° C.) is reported as 67%. For the same compound, the “Stability in a blood serum” value ([1]; 3 h incubation at 37° C.) was 52%, the “Isokinetic muscle strength, greater than with carbohydrates only” value (untrained subjects) was 10% and the “Isometric muscle strength, greater than with carbohydrates only” value (untrained subjects) was 21%. The “Reduction of the glucose response in glucose tolerance test” value [2] was 11-22%, the Subsequent injuries ([3]; dietary consumption of 1% creatine for four weeks) was “halved” and the “Reduction of the severity of craniocerebral trauma” value ([3]; injections of creatine 3 g/kg for up to five days before trauma) was 3-36%. The Frequency of fatigue ([4]; reduced from 82.4%) was 11.1%, the Frequency of dizziness ([4]; reduced from 88.9 percent) was 43.8% and the Frequency of headaches ([4]; reduced from 93.8%) was 11.1%.
For N=C(N)N(CC(=O)O)Cc1ccccc1 [phenylcreatine, N-benzyl-N-carbamimidoylglycine], the “Stability in a blood serum” value [1, 8] was 100%, the “Stability in a blood serum” value ([1]; 0.5 h incubation at 37° C.) was 100% and the “Stability in a blood serum” value ([1]; 1 h incubation at 37° C.) was 99%. For the same compound, the “Stability in a blood serum” value ([1]; 3 h incubation at 37° C.) was 96%, the “Concentration in the blood (in words)” value ([1]; for 3 hours) was “remained practically unchanged” and the “Number of ventricular extrasystoles” value ([5]; 20 mg per animal half an hour before adrenaline hydrochloride, control 32±6) was 12±4. For the same compound, the “Duration of the arrhythmia” value ([5]; 20 mg per animal half an hour before adrenaline hydrochloride, control 80±21) was 60 ± 14 s, the Transition to tachycardia ([5]; 20 mg per animal, control 50% of cases) was “no transition to tachycardia” and the “Holter monitoring within 3 months after the course” value [6] was “does not fix supraventricular extrasystoles”. The “Extrasystoles after the course” value ([6]; before: 4 times in 24 hours) was “extrasystoles completely disappeared”, the “Number of vertical rearings per minute” value (male Wistar rats; 10 mg per animal daily for a month with drinking water, untreated old rats 2±0.56) was 1.2±0.44 and the “The transit time of the labyrinth” value (male Wistar rats; 10 mg per animal daily for a month, untreated old rats 5±0.42) was 2 ± 0.22 min. For the same compound, the “The number of rats reaching the end of the labyrinth in 5 minutes” value (male Wistar rats; 10 mg per animal daily for a month, untreated old rats 10%) was 50%, the Negative effects [7] was “not detected” and the “Effect on endurance in the absence of sleep” value (white mongrel mice) was “persisted even in the absence of sleep”.

From US20190367449A1, “PHENYLCREATINE, ITS USE AND METHOD FOR ITS PRODUCTION” (priority 2017, published 2019)
